Reference: publication PMC6722743, “Whole Conversion of Soybean Molasses into Isomaltulose and Ethanol by Combining Enzymatic Hydrolysis and Successive Selective Fermentations” (Biomolecules, 2019)

Biological target: T1, RMgase (recombinant alpha-galactosidase) (Rhizomucor miehei, UniProt H8Y263)
T1 construct: codon-optimised synthetic gene with XPR2 signal peptide at 5' end (vector pINA1312), secreted by Yarrowia lipolytica transformant G82; purified by DEAE-Sepharose for pH/temperature profiles
T1 sequence (H8Y263 18-751): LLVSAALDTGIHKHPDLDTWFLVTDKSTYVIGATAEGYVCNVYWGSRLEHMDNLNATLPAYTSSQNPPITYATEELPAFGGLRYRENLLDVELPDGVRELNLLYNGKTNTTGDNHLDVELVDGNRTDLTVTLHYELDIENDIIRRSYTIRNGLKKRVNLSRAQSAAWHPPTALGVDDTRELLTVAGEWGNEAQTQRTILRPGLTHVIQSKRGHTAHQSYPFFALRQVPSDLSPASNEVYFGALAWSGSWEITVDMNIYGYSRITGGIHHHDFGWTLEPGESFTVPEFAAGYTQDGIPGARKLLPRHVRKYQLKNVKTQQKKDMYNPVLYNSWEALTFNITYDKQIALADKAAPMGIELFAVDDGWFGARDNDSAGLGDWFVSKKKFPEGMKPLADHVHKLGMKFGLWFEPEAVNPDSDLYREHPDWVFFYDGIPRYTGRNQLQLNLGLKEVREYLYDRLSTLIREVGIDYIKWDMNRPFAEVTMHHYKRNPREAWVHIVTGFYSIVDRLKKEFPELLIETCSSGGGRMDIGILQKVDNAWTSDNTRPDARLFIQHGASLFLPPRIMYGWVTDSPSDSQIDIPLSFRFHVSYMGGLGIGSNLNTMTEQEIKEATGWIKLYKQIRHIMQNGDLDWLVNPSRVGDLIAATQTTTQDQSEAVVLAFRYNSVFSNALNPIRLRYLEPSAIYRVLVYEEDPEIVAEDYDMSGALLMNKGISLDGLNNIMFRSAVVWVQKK
Assay: sugar hydrolysis, activity of secreted enzyme
Format: biochemical

OC[C@H]1O[C@H](OC[C@H]2O[C@H](OC[C@H]3O[C@H](O[C@]4(CO)O[C@H](CO)[C@@H](O)[C@@H]4O)[C@H](O)[C@@H](O)[C@@H]3O)[C@H](O)[C@@H](O)[C@H]2O)[C@H](O)[C@@H](O)[C@H]1O [stachyose]
sugar hydrolysis, activity of secreted enzyme: the α-galactosidase activity using pNPG, stachyose, raffinose and melibiose as substrate
